Assays:
Assay type in all cases: functional
Fusarium graminearum = assay: Antifungal activity against Fusarium graminearum at 150 uM
Sclerotinia sclerotiorum = assay: Antifungal activity against Sclerotinia sclerotiorum at 150 uM
Phytophthora capsici = assay: Antifungal activity against Phytophthora capsici at 150 uM
Pyricularia oryzae = assay: Antifungal activity against Pyricularia oryzae at 150 uM
Rhizoctonia solani = assay: Antifungal activity against Rhizoctonia solani at 150 uM

Measured: inhibition at 150 µM

CC1(C)CCC[C@]2(C)[C@H]3Cc4cc(Oc5cnc6ccccc6c5)ccc4O[C@]3(C)CC[C@@H]12
< 60%: Fusarium graminearum | Sclerotinia sclerotiorum | Phytophthora capsici | Pyricularia oryzae | Rhizoctonia solani

C#CCOc1ccc2c(c1)C[C@@H]1[C@@]3(C)CCCC(C)(C)[C@@H]3CC[C@@]1(C)O2
< 60%: Fusarium graminearum | Sclerotinia sclerotiorum | Phytophthora capsici | Pyricularia oryzae | Rhizoctonia solani

COc1ccc2c(c1)C[C@@H]1[C@@]3(C)CCCC(C)(C)[C@@H]3CC[C@@]1(C)O2
< 60%: Fusarium graminearum | Sclerotinia sclerotiorum | Phytophthora capsici | Pyricularia oryzae | Rhizoctonia solani

CC1(C)CCC[C@]2(C)[C@H]3Cc4cc(Oc5ccccn5)ccc4O[C@]3(C)CC[C@@H]12
< 60%: Fusarium graminearum | Sclerotinia sclerotiorum | Phytophthora capsici | Pyricularia oryzae | Rhizoctonia solani

CC1(C)CCC[C@]2(C)[C@H]3Cc4cc(Oc5ccccc5)ccc4O[C@]3(C)CC[C@@H]12
< 60%: Fusarium graminearum | Sclerotinia sclerotiorum | Phytophthora capsici | Pyricularia oryzae | Rhizoctonia solani

CC(=O)Oc1ccc2c(c1)C[C@@H]1[C@@]3(C)CCCC(C)(C)[C@@H]3CC[C@@]1(C)O2
< 60%: Fusarium graminearum | Sclerotinia sclerotiorum | Phytophthora capsici | Pyricularia oryzae | Rhizoctonia solani

CC(C)(C)C(=O)Oc1ccc2c(c1)C[C@@H]1[C@@]3(C)CCCC(C)(C)[C@@H]3CC[C@@]1(C)O2
< 60%: Fusarium graminearum | Sclerotinia sclerotiorum | Phytophthora capsici | Pyricularia oryzae | Rhizoctonia solani

CC1(C)CCC[C@]2(C)[C@H]3Cc4cc(OCc5ccccc5)ccc4O[C@]3(C)CC[C@@H]12
< 60%: Fusarium graminearum | Sclerotinia sclerotiorum | Phytophthora capsici | Pyricularia oryzae | Rhizoctonia solani

CC(C)=CCOc1ccc2c(c1)C[C@@H]1[C@@]3(C)CCCC(C)(C)[C@@H]3CC[C@@]1(C)O2
< 60%: Fusarium graminearum | Sclerotinia sclerotiorum | Phytophthora capsici | Pyricularia oryzae | Rhizoctonia solani

CCCOc1ccc2c(c1)C[C@@H]1[C@@]3(C)CCCC(C)(C)[C@@H]3CC[C@@]1(C)O2
< 60%: Fusarium graminearum | Sclerotinia sclerotiorum | Phytophthora capsici | Pyricularia oryzae | Rhizoctonia solani

CCOc1ccc2c(c1)C[C@@H]1[C@@]3(C)CCCC(C)(C)[C@@H]3CC[C@@]1(C)O2
< 60%: Fusarium graminearum | Sclerotinia sclerotiorum | Phytophthora capsici | Pyricularia oryzae | Rhizoctonia solani

C=CCOc1ccc2c(c1)C[C@@H]1[C@@]3(C)CCCC(C)(C)[C@@H]3CC[C@@]1(C)O2
< 60%: Fusarium graminearum | Sclerotinia sclerotiorum | Phytophthora capsici | Pyricularia oryzae | Rhizoctonia solani
